Assay results published in patent US20220226342A1, “COMPOSITIONS AND METHODS OF TREATING LIVER CANCERS” (The Johns Hopkins University, priority 2019, published 2022).

Key:
6 HCC PDO lines = assay: cell cycle analysis; type: cell-based, human
Experimental: FIG. 6A-6B. Cell cycle analysis of omacetaxine treated HCC PDOs. […] (6A) The histogram of cell cycle distributions.
The effects on proliferation were assessed to elucidate the omacetaxine mechanisms of action. […] To further understand the effects of omacetaxine on cancer cell proliferation and cell cycle, the inventors performed FACS analysis of Ki67 protein. Ki-67 is a nuclear protein expressed in proliferating cells (in all phases of the cell cycle except G0)^22,23. Furthermore, the higher expression of Ki67 has been linked to poorer disease free survival and overall survival in HCC^24. […] As caspase 3 is a key molecule in apoptosis, the inventors measured its activated (cleaved) fragment.

PDX26-3 = tested on: PDX26-3
Experimental: FIG. 7A-7I. […] Significance was determined with log rank test. […] Error bars represent Mean±standard deviation. […] (7J).
Patient derived xenograft (PDX) models of human cancer are well documented to recapitulate primary tumor biology, as well as response to treatment^28, 29. Two PDX models from HCC patients were established in the inventors' lab with the purpose of creating a platform for further validation of drug leads. The first model, PDX26-3, was established by subcutaneous injection of HCC PDO cells into NOD SCID-IL2R-γ chain-deficient mice (NSG, Jackson Lab). More specifically, PDX26-3 is established from PDO26-3 cells at passage 3. After the initial PDX establishment, the model is perpetuated by implantation of pieces of tumors from current generation PDX mice into the next (as described in Materials and Methods).

MET = assay: oncoprotein staining of HCC PDX tumor frozen sections; type: in vivo, human; details: HCC PDX tumor (50 HCC PDX) vs control
Description: (§1) FIG. 8A-8G. Omacetaxine inhibits tumor cell proliferation and increases apoptosis and suppressed HCC oncoprotein expression in vivo. (8A-8D) Immunofluorescent staining of Ki67 and cleaved caspase 3 expression in 26-3 PDX model. 8A-8B show the IF staining pictures, 8C-8D show the relative Ki67 or cleaved caspase 3 positive cell number in omacetaxine treated mice compared with control treatment groups. (8E-8G) Omacetaxine suppressed HCC oncoprotein: c-Myc, Beta-catenin and MET protein expression in 50 HCC PDX treated with Omacetaxine vs control.
(§2) Tumor masses from HCC PDX mice treated with omacetaxine and negative control, respectively, were utilized to prepare frozen sections, which were then stained for the c-Myc, MET and beta-catenin.

beta-catenin = assay: as above; type: in vivo, human; details: HCC PDX tumor (50 HCC PDX) vs control
Description: as §1, §2

c-Myc = assay: as above; type: in vivo, human; details: HCC PDX tumor (50 HCC PDX) vs control
Description: as §1, §2

PDX50 = assay: HCC patient derived xenograft model PDX50
Description: P<0.001. Error bars represent Mean±standard deviation. Not significant (NS).
The second model, PDX50, was established by directly implanting pieces of the fresh human HCC tumor into NSG mice. After initial implantation, PDX50 is perpetuated similarly to PDX26-3. […] PDX50 is less aggressive—mice continue to be active, to eat and function normally, in spite of very large tumors. Therefore, PDX50 is not ideal for survival determinations.

COC(=O)C[C@](O)(CCCC(C)(C)O)C(=O)O[C@@H]1C(OC)=C[C@]23CCCN2CCc2cc4c(cc2[C@H]13)OCO4 [omacetaxine, omacetaxine mepusuccinate]
cell cycle arrest (6 HCC PDO lines; 6 HCC PDOs, dose-dependent): induces G0/G1 arrest
G0/G1 fraction with rising omacetaxine dose (6 HCC PDO lines; all 6 HCC PDOs): around 90%
size of the tumors at the end of the treatment (PDX26-3; PDX26-3, day 30, vs control): statistically significant difference
weight of the tumors at the end of the treatment (PDX26-3; PDX26-3, day 30, vs control): statistically significant difference
increase in survival (PDX26-3; PDX26-3 mice, statistically significant): approximately 100%
tumor growth (PDX26-3; PDX26-3 mice, treatment applied directly into the tumor): halting of tumor growth
body mass of mice, treatment vs. control group (PDX26-3; mouse, in vivo): no difference in the body mass
MET expression in vivo (MET): downregulated
beta-catenin expression in vivo (beta-catenin): downregulated
c-Myc expression in vivo (c-Myc): downregulated
body mass of mice, treatment vs. control group (PDX50): no difference in the body mass
tumor growth (PDX50; PDX50 mice, treatment applied directly into the tumor): halting of tumor growth
